Test [1] can be described thus: Psoriasis patients. The class given is in vivo, human. Conditions: 10 days. The method, then:
Patients with psoriasis are treated with Ile-Trp and some patients are used as controls.
All patients had at a least 5 year history of […] treatment.

Test [2] in a line: Female patients with pelvic inflammatory diseases, cervicitis, vaginitis, abscesses. Type of test: in vivo, human. The method, then:
Female patients with the various disorders (pelvic inflammatory diseases, cervicitis, vaginitis and various tubo-ovarian and adnexal abscesses) are treated and some patients are used as controls. Ile-Trp is applied IM, intranasally at 100 μg 5 consecutive days or 50 μg intralymphatically for 5 consecutive days in conjunction with conventional therapy. […] The normalization of immune status correlates with clinical improvements.
The normalization of immune status correlated with clinical improvements.

The subject of test [3] is herpetic lesions. Kind of test: Recurrent herpetic lesions. Type of test: in vivo, human. Conditions: for recurrence of herpetic lesions: IM or intranasally.
Test [4] can be described thus: Toothpaste containing the dipeptide: dental caries, gingival disease. The class given is in vivo, human.
The nature of test [5]: Chronic and acute ear infections. Type of test: in vivo, human.
The nature of test [6]: Eye problems, with conventional treatment. Type of test: in vivo, human. The method, then: Patients with various eye problems are treated by conventional methods, with one group receiving Ile-Trp in addition to the conventional treatment.
Test [7] is described as follows: Symptom complexes: joint pain, muscle aches, fevers, chills (Examples 17, 66). The class given is in vivo, human.
The nature of test [8]: Bone-marrow compromise (transplant or radiation exposure). Type of test: in vivo, human.
The nature of test [9]: Massive hemotransfusions in post-operative period. The class given is in vivo, human. On the procedure: Patients exposed to massive hemotransfusions during post-operative period are treated with Ile-Trp. The peptide is administered starting from 4-6 day of post-operative period single daily IM or intranasally in doses 100 μg for 5 days.
Test [10] in a line: Antibiotic-treated patients with unfavorable allergological history. Type of test: in vivo, human. The method, then: Ile-Trp is applied in patients treated with antibiotics for various indications who have unfavorable allergological history. Ile-Trp is administered IM or intranasally single daily at 100 μg for 5-10 days.
Control group comprised 43 patients.

A short description of test [11]: Patients subjected to skin grafting. The class given is in vivo, human. On the procedure: Ile-Trp is administered to patients subjected to skin grafting. Ile-Trp is administered IM or intranasally single daily at 50-100 μg for 5 days.
The control group comprised 27 patients. […] In control group the manifestations of rejection were determined in 8 patients.

The subject of test [12] is antibiotic-resistant staphylococci. As to the kind of experiment: Chronic skin diseases caused by antibiotic-resistant staphylococci. Type of test: in vivo, human. On the procedure:
Ile-Trp is administered to patients suffering from chronic skin diseases caused by antibiotic-resistant staphylococci. Ile-Trp is administered IM in single daily doses of 100 μg for 5 days and intranasally to a different group in the same daily and total dose. In the patients with signs of secondary T-immunodeficiency the staphylococci antibiotic sensitivity to one, few or all antibiotics is increased which then permits one to choose for each patient an effective antibiotic with exclusively high activity against a given pathogen.
47 patients with the same pathology but not treated with the immunomodulator were the control group. […] The differences between these methods of application were not noticed. In all the patients with signs of secondary T-immunodeficiency the staphylococci antibiotic-sensitivity to one, few or all antibiotics has been increased sharply (more than 100-fold) what permitted further to choose for each patient the antibiotic with exclusively high activity against pathogen. As a whole, within the examined group of patients the reliable decease of MIC of all studied antibiotics has been marked. The proposed treatment regiment permitted to obtain the complete recovery in 27 patients, significant improvement—in 8 patients and moderate improvement—in 1 patient.

The nature of test [13]: Wounds of various origin. The class given is in vivo, human. On the procedure:
Ile-Trp is used in patients with wounds of various origin, type and localization. Ile-Trp is administered IM or topically single daily at 100 μg for 10 days.
The control group comprised 24 patients.

The nature of test [14]: Bone fractures. Type of test: in vivo, human. On the procedure: Ile-Trp is applied to patients with bone fractures of various origin, type and localization. Ile-Trp is administered intramuscularly or intranasally single daily at […] for 10 days.
The control group comprised 28 patients.

Test [15] is described as follows: Pregnant women (Examples 34, 87). The class given is in vivo, human. The method, then: Ile-Trp is administered to pregnant women. The route of administration is IM or intranasally 100 μg daily for 5-10 days.
The route of administration is IM or intranasally 100 μg daily for 5-10 days. […] It was also noted that there was a decrease in fetal hypoxia.

Test [16] is described as follows: Pyelonephritis. The class given is in vivo, human. From the text: The normal course of delivery in those women treated with IM862 was without complications.
Test [17] has as its system hemorrhagic Dengue Fever. As to the kind of experiment: Hemorrhagic Dengue Fever (Examples 38, 94). The class given is in vivo, human. From the text: Ile-Trp is applied in patients with hemorrhagic Dengue Fever. […]
It was also noted that the muscular and bone pain experienced typically was reduced, and the immunological indices were normalized.

Test [18] in a line: Bronchial asthma. The class given is in vivo, human. From the text:
Patients, children and adults, with bronchial asthma are studied. […] A significant reduction in bronchial obstruction and laryngotracheitis is noted.
A total of 37 patients, children and adults, with bronchial asthma and 28 similar patients as controls were studied. […] The significant reduction in bronchial obstruction and laryngotracheitis was noted. […] In some of the patients it was possible to avoid steroids in the conventional commitment treatment course. In the allowing year observation there was noted a decrease in the incidence of bronchial asthma 4.2 fold. In more than half of the patients the disappearance of drug and food allergy manifestations was noted.

The test system of test [19] is Shigella.
From the text: A total 125 patients infected with Shigella dysentery are examined.
A total 125 patients with 53 patients for control infected with Shigella dysentery were examined.
[20] abbreviates: IM862 100 μg IM or intranasally.

Entries after “also recorded” stand apart in the source; their conditions may differ. Where two headings read alike, the source gives them in different places.

On to Ile-Trp, for which the clinical effect entry was “improvement in most of the patients, and total recovery in some of the patients” in [1] (Ile-Trp 100 μg IM or intranasally); “arresting of pain syndrome” in test [2] (Ile-Trp with conventional therapy); “reduction of gingival disease and reduction in dental caries” in test [4] (toothpaste containing Ile-Trp); “accelerated healing of chronic and acute ear infections” in [5] (Ile-Trp with antibiotics); “more rapid arresting of the inflammatory process” in [6] (Ile-Trp intra ocularly 18 μg 5 days or drops); “accelerated reduction in symptom complexes” in test [7] (Ile-Trp 100 μg 5-10 days). The clinical effect entry was “improved immune parameters” in test [8] (Ile-Trp IM or intranasally); “resolution of weakness, dizziness, and increased appetite” in test [15] (Ile-Trp 100 μg daily 5-10 days); “reduction of fever” in test [16] (Ile-Trp 100 μg 5-10 days with conventional therapy); “reduction in fever” in test [17] (Ile-Trp IM 100 μg 5 days with conventional therapy); “less severe clinical symptoms” in [18] (Ile-Trp IM 1 μg/kg 5-10 days); “normalization of fever” in [19] (Ile-Trp IM 100 μg 10 days). Besides, the “recurrence of herpetic lesions” value in [3] (Ile-Trp topically) is “marked reduction of recurrence of herpetic lesions”. In addition, the alloblood rejection entry in test [9] (Ile-Trp 100 μg 5 days) is recorded as “do not show clinical manifestation of alloblood rejection”. Moreover, the “allergic reactions to antibiotics” value in test [10] (Ile-Trp 100 μg 5-10 days) is “prevents the arising of allergic reactions”. Further, in [11] (Ile-Trp 50-100 μg 5 days), the “infectious complications and graft rejection” value is “prevents the arising of infections complications and graft rejection”. Besides, the staphylococci antibiotic sensitivity entry in [12] (Ile-Trp 100 μg 5 days, patients with secondary T-immunodeficiency) was “is increased”. Besides, in [13] (Ile-Trp), the wound healing entry is “speeds up; also recorded: accelerates wound healing”. Moreover, the consolidation of fractures result in test [14] (Ile-Trp, 10 days) is “accelerates essentially”.

As for Glu-Trp [IM862], the “significant improvement, share of patients” value in [1] (setting [20]) is listed as 60%. The “total recovery, share of patients” value in test [1] (setting [20]) is 33%. Besides, the “improvement, share of patients” value in [1] (IM862 100 μg IM or intranasally, 30 patients) is 7%. For the same substance, the clinical effect entry in [2] (IM862 with conventional therapy, 46 patients) is “arresting of pain syndrome”; in test [4] (toothpaste containing IM862), “reduction of gingival disease and reduction in dental caries”; in [5] (IM862 with antibiotics), “accelerated healing of chronic and acute ear infections”; in [6] (IM862 intra ocularly 18 μg 5 days or drops, 41 patients), “more rapid arresting of the inflammatory process”; in test [7] (IM862 100 μg 5-10 days, 156 patients) it was “accelerated reduction in symptom complexes”; in [8] (IM862 IM or intranasally) it was “improved immune parameters”. Also, the clinical effect entry in test [15] (IM862 100 μg daily 5-10 days, 34 women) is “resolution of weakness, dizziness, and increased appetite”; in test [16] (IM862 100 μg 5-10 days with conventional therapy, 27 patients) it was “reduction of fever”; in [17] (IM862 IM 100 μg 3 days with conventional therapy, 21 patients) it was “reduction in fever”; in test [18] (IM862 IM 1 μg/kg 5-10 days, 37 patients) it was “less severe clinical symptoms”; in test [19] (IM862 IM 100 μg 10 days, 125 patients), “normalization of fever”. For the same substance, the “outbreaks per year after treatment” value in test [3] (IM862 in combination with interferon, 7-10 outbreaks per year before) was “less than one outbreak per year”. In addition, the “recurrence of herpetic lesions” value in test [3] (IM862 topically) is “marked reduction of recurrence of herpetic lesions”. Besides, the alloblood rejection entry in [9] (IM862 100 μg 5 days, 76 patients) is on record as “None of studies patients showed clinical manifestation of alloblood rejection”. Further, the “allergic reactions to antibiotics” value in [10] (IM862 100 μg 5-10 days, 76 patients, majority of cases) is listed as “prevented the arising of allergic reactions”. In addition, in test [11] (IM862 50-100 μg 5 days, all 17 patients), the “infectious complications and graft rejection” value was “prevented the arising of infections complications and graft rejection”. Moreover, in [12] (IM862 100 μg 5 days, patients with secondary T-immunodeficiency), the “increase of staphylococci antibiotic-sensitivity” value is recorded as “more than 100 fold”. Further, the “complete recovery, number of patients” value in test [12] (IM862 treatment regimen) worked out at 27 patients. Further, in [12] (IM862 treatment regimen), the “moderate improvement, number of patients” value was 1 patient. In addition, in [12] (IM862 treatment regimen), the “significant improvement, number of patients” value was found to be 8 patients. Moreover, in test [13] (IM862), the wound healing result was “speeded up; also recorded: accelerates wound healing”. The consolidation of fractures entry in [14] (IM862, 10 days, 44 patients) was “accelerated essentially”. For the same substance, the “decrease in the incidence of bronchial asthma” value in test [18] (IM862, following year observation) stood at 4.2 fold.

Values taken from patent publication US20030198617A1, “Pharmaceutical tryptophan containing dipeptide compositions and methods of use thereof” (priority 1993, published 2003).
